Measured values taken from PubChem BioAssay (NCI).
Values joined by “and” are separate entries in the source; they are usually repeats but may differ in a detail not shown here. Equal entries are not always repeated.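 Grown in 96-well plates, cells were treated for 48 hours with each compound at five concentrations. Insufficient inhibition: endpoint recorded as highest concentration tested. Abbreviation: GI50, concentration required for 50% inhibition of growth. Definition used: TGI = concentration required for complete inhibition of growth.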

Columns and labels:
Test in all cases: growth of human tumour cells (NCI), 48 h
[1] = test system: NCI-H522 lung
[2] = test system: OVCAR-5 ovarian
[3] = test system: NCI-H23 lung
[4] = test system: RXF 393 renal
[5] = test system: KM12 colon
[6] = test system: DU-145 prostate
[7] = test system: M14 melanoma
[8] = test system: SK-MEL-28 melanoma
[9] = test system: HOP-62 NSCLC
[10] = test system: SK-MEL-2 melanoma

SMILES	GI50 [1]	TGI [1]	GI50 [2]	TGI [2]	GI50 [3]	TGI [3]	GI50 [4]	TGI [4]	GI50 [5]	TGI [5]	GI50 [6]	TGI [6]	GI50 [7]	TGI [7]	GI50 [8]	TGI [8]	GI50 [9]	TGI [9]	GI50 [10]	TGI [10]
Nc1ncnc2c1N=C(c1ccc3c(c1)OCO3)CC(c1ccc([N+](=O)[O-])cc1)N2 (centres undefined)	6.78 µM	> 100 µM	> 100 µM	> 100 µM	> 100 µM	> 100 µM	7.19 µM	63.1 µM	35.2 µM	> 100 µM	46.3 µM	> 100 µM	> 100 µM	> 100 µM	> 100 µM	> 100 µM	67.6 µM	> 100 µM		
CCCCOC(=O)N1CCN(/[N+]([O-])=N/Oc2ccc([N+](=O)[O-])cc2[N+](=O)[O-])CC1	2.91 µM	> 100 µM	3.53 µM	11.8 µM	4.6 µM	19.5 µM	17.6 µM	40.4 µM	3.65 µM	14.5 µM	3.35 µM	12 µM			13.7 µM	35.7 µM	6.28 µM	23.2 µM	4.55 µM	21.8 µM
N#C/C(=C\c1ccsc1)c1nc2ccccc2o1	50.6 µM	> 100 µM	> 100 µM	> 100 µM	> 100 µM	> 100 µM	39.8 µM	> 100 µM	> 100 µM	> 100 µM	84.6 µM	> 100 µM	> 100 µM	> 100 µM	> 100 µM	> 100 µM			98.5 µM	> 100 µM
Cc1cccc(/C=N/NC(=S)N2CCCC2)n1		> 100 µM	2.41 µM		0.401 µM	13.4 µM	2.09 µM		0.88 µM and 0.322 µM	> 100 µM	0.98 µM		0.392 µM	2.64 µM and 0.485 µM	1.42 µM	> 100 µM	2.17 µM	0.942 µM		
COc1ccc(CCN2CC=Cn3c2nc2ccccc2c3=O)cc1	0.0113 µM	0.0375 µM	0.217 µM	> 100 µM	0.0416 µM	> 100 µM	0.0309 µM	> 100 µM	0.0167 µM	> 100 µM	0.0374 µM	> 23.3 µM			0.694 µM	> 100 µM	0.0346 µM	> 64 µM	0.0334 µM	32.9 µM
CC(C)CCCC(C)[C@H]1CCC2[C@@H]3CCC4Cc5nc6c(nc5C[C@]4(C)C3CC[C@@]21C)CC1CC[C@@H]2C(CC[C@@]3(C)C2CC[C@@H]3C(C)CCCC(C)C)[C@@]1(C)C6 (some centres undefined)				> 100 µM		> 100 µM		> 100 µM		> 100 µM		> 100 µM		> 100 µM		> 100 µM		> 100 µM		> 100 µM
CC(=O)N1CC(C)(C)c2c(C)c(O)c(C)c(C)c21		> 100 µM		> 100 µM		> 100 µM		> 100 µM		> 100 µM		> 100 µM		> 100 µM		> 100 µM		> 100 µM		
